The experiment concerns the target TNF-α converting enzyme (TACE) (Homo sapiens, UniProt P78536). In words: Test procedure for measuring TACE inhibition (fluorescent peptidyl substrate). In kind it is biochemical. The following applies: Table 1.

TNF-α converting enzyme (TACE), sequence (P78536 215-824): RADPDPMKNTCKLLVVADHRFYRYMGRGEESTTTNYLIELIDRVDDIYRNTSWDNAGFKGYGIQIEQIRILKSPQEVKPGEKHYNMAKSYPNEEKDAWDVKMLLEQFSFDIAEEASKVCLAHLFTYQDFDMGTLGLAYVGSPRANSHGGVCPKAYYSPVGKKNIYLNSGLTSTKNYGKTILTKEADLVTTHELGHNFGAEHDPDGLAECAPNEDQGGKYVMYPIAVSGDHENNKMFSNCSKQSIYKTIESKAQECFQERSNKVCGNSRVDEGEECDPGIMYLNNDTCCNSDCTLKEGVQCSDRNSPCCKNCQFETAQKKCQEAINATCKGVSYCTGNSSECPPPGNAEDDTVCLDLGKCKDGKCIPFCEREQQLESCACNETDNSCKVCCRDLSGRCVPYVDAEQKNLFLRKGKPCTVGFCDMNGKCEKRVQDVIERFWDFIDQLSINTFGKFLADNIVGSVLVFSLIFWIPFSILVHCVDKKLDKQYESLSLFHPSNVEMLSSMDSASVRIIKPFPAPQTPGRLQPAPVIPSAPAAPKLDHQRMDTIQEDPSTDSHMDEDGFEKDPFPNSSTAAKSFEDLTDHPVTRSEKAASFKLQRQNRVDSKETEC

With `CC#CCOc1ccc(S(=O)(=O)C(CCCCNC(=O)c2nccc3ccccc23)C(=O)NO)cc1` (stereo not drawn) [Example 41, Isoquinoline-1-carboxylic acid [5-(4-but-2-ynyloxy-benzenesulfonyl)-5-hydroxycarbamoyl-pentyl]-amide], the IC50 (in general, the point on the concentration scale where inhibition reaches its midpoint) came out at 37.3 nM.

The compound `CC#CCOc1ccc(S(=O)(=O)C(CCCCNC(=O)CNC(=O)Cc2csc3ccccc23)C(=O)NO)cc1` (stereo not drawn) [Example 69] showed an IC50 of 29.2 nM.

`CC#CCOc1ccc([S+]([O-])C(CCCCNC(=O)c2cnc3ccccc3c2)C(=O)NO)cc1` (stereo not drawn) [Example 27, Quinoline-3-carboxylic acid [5-(4-but-2-ynyloxy-benzenesulfinyl)-5-hydroxycarbamoylpentyl]-amide] displayed an IC50 of 46.3 nM.

In turn, `CC#CCOc1ccc(SC(CCCCNC(=O)CN2C(=O)c3ccccc3C2=O)C(=O)NO)cc1` (stereo not drawn) [Example 13, 2-(4-But-2-ynyloxy-phenylsulfanyl)-6-[2-(1,3-dioxo-1,3-dihydroiso-indol-2-yl)-acetylamino]-hexanoic acid hydroxyamide] came in with an IC50 of 42.5 nM.

In turn, `CC#CCOc1ccc(S(=O)(=O)C(CCCCNC(=O)c2ccc3ccccc3n2)C(=O)NO)cc1` (stereo not drawn) [Example 35, Quinoline-2-carboxylic acid [5-(4-but-2-ynyloxy-benzenesulfonyl)-5-hydroxycarbamoylpentyl]-amide] returned an IC50 of 68.3 nM.

The compound `CC#CCOc1ccc(S(=O)(=O)C(CCCCNC(=O)Cc2csc3ccccc23)C(=O)NO)cc1` (stereo not drawn) [Example 42, 6-(2-Benzo[b]thiophen-3-yl-acetylamino)-2-(4-but-2-ynyloxy-benzenesulfonyl)-hexanoic acid hydroxyamide] displayed an IC50 of 24.9 nM.

As for `CC#CCOc1ccc(S(=O)(=O)C(CCCCNC(=O)CNC(=O)c2nccc3ccccc23)C(=O)NO)cc1` (stereo not drawn) [Example 68, Isoquinoline-1-carboxylic acid {[5-(4-but-2-ynyloxy-benzenesulfonyl)-5-hydroxycarbamoyl-pentylcarbamoyl]-methyl}-amide], the IC50 was found to be 21.2 nM.

Regarding `CC#CCOc1ccc(S(=O)(=O)C(CCCCNC(=O)CNC(=O)C2c3ccccc3Oc3ccccc32)C(=O)NO)cc1` (stereo not drawn) [Example 67, 9H-Xanthene-9-carboxylic acid {[5-(4-but-2-ynyloxy-benzenesulfonyl)-5-hydroxycarbamoyl-pentylcarbamoyl]-methyl}-amide], half-maximal inhibition (IC50) was put at 34.8 nM.

`CC#CCOc1ccc([S+]([O-])C(CCCCNC(=O)CNC(=O)c2ccc3ccccc3n2)C(=O)NO)cc1` (stereo not drawn) [Example 54] yielded an IC50 of 27.2 nM.

As for `CC#CCOc1ccc(SC(CCCCNC(=O)CNC(=O)CN2C(=O)c3ccccc3C2=O)C(=O)NO)cc1` (stereo not drawn) [Example 45, 2-(4-But-2-ynyloxy-phenylsulfanyl)-6-{2-[2-(1,3-dioxo-1,3-dihydro-isoindol-2-yl)-acetylamino]-acetylamino}-hexanoic acid hydroxyamide], the IC50 was determined as 16.1 nM.

In turn, `CC#CCOc1ccc(SC(CCCCNC(=O)CNC(=O)c2cccn2C)C(=O)NO)cc1` (stereo not drawn) [Example 51, 1-Methyl-1H-pyrrole-2-carboxylic acid ([5-(4-but-2-ynyloxy-phenylsulfanyl)-5-hydroxycarbamoyl-pentylcarbamoyl]-methyl}-amide] registered an IC50 of 22.4 nM.

For `CC#CCOc1ccc(S(=O)(=O)C(CCCCNC(=O)C2c3ccccc3Oc3ccccc32)C(=O)NO)cc1` (stereo not drawn) [Example 39, 9H-Xanthene-9-carboxylic acid [5-(4-but-2-ynyloxy-benzenesulfonyl)-5-hydroxycarbamoyl-pentyl]-amide], the IC50 worked out at 65.1 nM.

`CC#CCOc1ccc(SC(CCCCNC(=O)CNC(=O)c2ccccc2CCc2ccccc2)C(=O)NO)cc1` (stereo not drawn) [Example 46]: the IC50 was 84.2 nM.

Compound `CC#CCOc1ccc([S+]([O-])C(CCCCNC(=O)Cc2c[nH]c3ccccc23)C(=O)NO)cc1` (stereo not drawn) [Example 33, 2-(4-But-2-ynyloxy-benzenesulfinyl)-6-(2-1H-indol-3-yl-acetylamino)-hexanoic acid hydroxyamide] returned an IC50 of 35.6 nM.

Consider `CC#CCOc1ccc([S+]([O-])C(CCCCNC(=O)Cc2csc3ccccc23)C(=O)NO)cc1` (stereo not drawn) [Example 32, 6-(2-Benzo[b]thiophen-3-yl-acetylamino)-2-(4-but-2-ynyloxy-benzenesulfinyl)-hexanoic acid hydroxyamide], for which the IC50 was determined as 46.8 nM.

`CC#CCOc1ccc(SC(CCCCNC(=O)CNC(=O)C(c2ccccc2)c2ccccc2)C(=O)NO)cc1` (stereo not drawn) [Example 49, 2-(4-But-2-ynyloxy-phenylsulfanyl)-6-(2-diphenylacetylamino-acetylamino)-hexanoic acid hydroxyamide] gave an IC50 of 53.8 nM.

Take `CC#CCOc1ccc(SC(CCCCNC(=O)CNC(=O)c2ccc3ccccc3n2)C(=O)NO)cc1` (stereo not drawn) [Example 44, Quinoline-2-carboxylic acid {[5-(4-but-2-ynyloxy-phenylsulfanyl)-5-hydroxycarbamoylpentylcarbamoyl]-methyl}-amide]: the IC50 amounted to 32.1 nM.

The compound `CC#CCOc1ccc(S(=O)(=O)C(CCCCNC(=O)c2cnc3ccccc3c2)C(=O)NO)cc1` (stereo not drawn) [Example 38, Quinoline-3-carboxylic acid [5-(4-but-2-ynyloxy-benzenesulfonyl)-5-hydroxycarbamoylpentyl]-amide] registered an IC50 of 39.9 nM.

The compound `CC#CCOc1ccc(SC(CCCCNC(=O)c2cnc3ccccc3c2)C(=O)NO)cc1` (stereo not drawn) [Example 17, Quinoline-3-carboxylic acid [5-(4-but-2-ynyloxy-phenylsulfanyl)-5-hydroxycarbamoylpentyl]-amide] had an IC50 of 43.7 nM.

For `CC#CCOc1ccc(SC(CCCCNC(=O)Cc2ccc(Cl)c(Cl)c2)C(=O)NO)cc1` (stereo not drawn) [Example 16, 2-(4-But-2-ynyloxy-phenylsulfanyl)-6-[2-(3,4-dichloro-phenyl)-acetylamino]-hexanoic acid hydroxyamide], the midpoint of inhibition, the IC50, lay at 24.9 nM.

`CC#CCOc1ccc(SC(CCCCNC(=O)C(c2ccccc2)c2ccccc2)C(=O)NO)cc1` (stereo not drawn) [Example 20, 2-(4-But-2-ynyloxy-phenylsulfanyl)-6-diphenylacetylamino-hexanoic acid hydroxyamide] yielded an IC50 of 88.6 nM.

As to `CC#CCOc1ccc(SC(CCCCNC(=O)Cc2csc3ccccc23)C(=O)NO)cc1` (stereo not drawn) [Example 22, 6-(2-Benzo[b]thiophen-3-yl-acetylamino)-2-(4-but-2-ynyloxy-phenylsulfanyl)-hexanoic acid hydroxyamide], the IC50 amounted to 32.8 nM.

`CC#CCOc1ccc(SC(CCCCNC(=O)CNC(=O)c2cnc3ccccc3c2)C(=O)NO)cc1` (stereo not drawn) [Example 47, Quinoline-3-carboxylic acid {[5-(4-but-2-ynyloxy-phenylsulfanyl)-5-hydroxycarbamoyl-pentylcarbamoyl]-methyl}-amide]: the midpoint of inhibition, the IC50, lay at 18.9 nM.

As for `CC#CCOc1ccc([S+]([O-])C(CCCCNC(=O)Cc2ccc(Cl)c(Cl)c2)C(=O)NO)cc1` (stereo not drawn) [Example 26, 2-(4-But-2-ynyloxy-benzenesulfinyl)-6-[2-(3,4-dichloro-phenyl)-acetylamino]-hexanoic acid hydroxyamide], the IC50 stood at 29.9 nM.

The compound `CC#CCOc1ccc([S+]([O-])C(CCCCNC(=O)CNC(=O)CN2C(=O)c3ccccc3C2=O)C(=O)NO)cc1` (stereo not drawn) [Example 55, 2-(4-But-2-ynyloxy-benzenesulfinyl)-6-[2-(1,3-dioxo-1,3-dihydro-isoindol-2-yl)-acetylammo]-hexanoic acid hydroxyamide] came in with an IC50 of 38.5 nM.

The compound `CC#CCOc1ccc(SC(CCCCNC(=O)CNC(=O)Cc2csc3ccccc23)C(=O)NO)cc1` (stereo not drawn) [Example 52] displayed an IC50 of 70.2 nM.

`CC#CCOc1ccc(SC(CCCCNC(=O)c2nccc3ccccc23)C(=O)NO)cc1` (stereo not drawn) [Example 21, Isoquinoline-1-carboxylic acid [5-(4-but-2-ynyloxy-phenylsulfanyl)-5-hydroxycarbamoylpentyl]-amide] showed an IC50 of 20.1 nM.

On to `CC#CCOc1ccc(SC(CCCCNC(=O)CNC(=O)c2nccc3ccccc23)C(=O)NO)cc1` (stereo not drawn) [Example 50, Isoquinoline-1-carboxylic acid {[5-(4-but-2-ynyloxy-phenylsulfanyl)-5-hydroxycarbamoylpentylcarbamoyl]-methyl}-amide], for which the IC50 came out at 35.9 nM.

As for “2-(4-But-2-ynyloxy-benzenesulfinyl)-6-diphenylacetylamino-hexanoic acid hydroxyamide [Example 60]”, it took 40.9 nM to reach half-maximal inhibition (IC50).

With `CC#CCOc1ccc(S(=O)(=O)C(CCCCNC(=O)CNC(=O)CN2C(=O)c3ccccc3C2=O)C(=O)NO)cc1` (stereo not drawn) [Example 63, 2-(4-But-2-ynyloxy-benzenesulfonyl)-6-{2-[2-(1,3-dioxo-1,3-dihydro-isoindol-2-yl)-acetyl-amino]-acetylamino}-hexanoic acid hydroxyamide], the IC50 is 16.1 nM.

As for `CC#CCOc1ccc(SC(CCCCNC(=O)C2c3ccccc3Oc3ccccc32)C(=O)NO)cc1` (stereo not drawn) [Example 19, 9H-Xanthene-9-carboxylic acid [5-(4-but-2-ynyloxy-phenylsulfanyl)-5-hydroxycarbamoylpentyl]-amide], 43.3 nM corresponded to half-maximal inhibition (IC50).

`CC#CCOc1ccc(SC(CCCCNC(=O)c2ccc3ccccc3n2)C(=O)NO)cc1` (stereo not drawn) [Example 14, Quinoline-2-carboxylic acid [5-(4-but-2-ynyloxy-phenylsulfanyl)-5-hydroxycarbamoylpentyl]-amide] came in with an IC50 of 62.9 nM.

Compound `CC#CCOc1ccc(S(=O)(=O)C(CCCCNC(=O)CNC(=O)C(c2ccccc2)c2ccccc2)C(=O)NO)cc1` (stereo not drawn) [Example 62, 2-(4-But-2-ynyloxy-benzenesulfonyl)-6-(2-diphenylacetylamino-acetylamino)-hexanoic acid hydroxyamide] came in with an IC50 of 31.9 nM.

In turn, `CC#CCOc1ccc([S+]([O-])C(CCCCNC(=O)c2ccccc2CCc2ccccc2)C(=O)NO)cc1` (stereo not drawn) [Example 25, N-[5-(4-But-2-ynyloxy-benzenesulfinyl)-5-hydroxycarbamoyl-pentyl]-2-phenethylbenzamide] gave an IC50 of 43.5 nM.

Consider `CC#CCOc1ccc(S(=O)(=O)C(CCCCNC(=O)C(c2ccccc2)c2ccccc2)C(=O)NO)cc1` (stereo not drawn) [Example 40, 2-(4-But-2-ynyloxy-benzenesulfonyl)-6-diphenylacetylamino-hexanoic acid hydroxyamide], for which half-maximal inhibition (IC50) was put at 59.1 nM.

`CC#CCOc1ccc(SC(CCCCNC(=O)c2ccccc2CCc2ccccc2)C(=O)NO)cc1` (stereo not drawn) [Example 15, N-[5-(4-But-2-ynyloxy-phenylsulfanyl)-5-hydroxycarbamoyl-pentyl]-2-phenethylbenzamide] returned an IC50 of 138 nM.
